The results in this text go back to the METLIN SMRT retention time set (Domingo-Almenara et al. 2019).

This data set can be described thus: gradient 5% acetonitrile 3 min, to 50% in 2 min, to 85% in 15 min, held 3 min, 100 µL/min. To be noted: column: Zorbax Extend-C18 2.1 x 50 mm; eluents: water / acetonitrile, 0.1% formic acid. Summed up: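 In both positive and negative ionization mode, a quadrupole time-of-flight mass spectrometer coupled to HPLC analyzed pure standards run in mixtures of ~100 molecules. The Zorbax Extend-C18 column (2.1 × 50 mm, 1.8 μm) was operated at 100 μL/min with water and acetonitrile, each containing 0.1% formic acid. The dead volume was 40 μL and the dwell volume 900 μL. Retention time came from adduct peaks that were computationally picked and individually inspected by hand.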
`CCOc1cccc(-c2noc(Cn3ncn4nc(-c5ccc(Br)cc5)cc4c3=O)n2)c1` showed an RP-LC retention time of 1310 s.
The result for `CCN1CCN(C(=O)CC2CCN(C(=O)c3[nH]c(C)c(C(=O)OC(C)C)c3C)CC2)CC1` reads 612 s; that for `Cn1nc(N2CCC(NC(=O)Cc3ccncc3)C2)ccc1=O` (centres undefined), 549 s; that for `CCCn1cc(S(=O)(=O)Nc2ccc(OC)c(OC)c2)c2cccnc21`, 876 s.
The value for `CCn1nc2ccc(S(=O)(=O)N3CCOCC3)cn2c1=O` was 645 s; that for `COc1ccc(CN2C[C@@H](CO)[C@H](c3ccncc3)C2)cc1C` was 542 s; that for `O=C(Nc1ccc(F)cc1)N1CCCC1c1nc(-c2cccc(F)c2)no1` (centres undefined) was 965 s.
Regarding `CC(=O)N(Cc1nn(C)c2c1CN(CC1=Cc3ccccc3OC1)CC2)c1ccccc1`, the RP-LC retention time was found to be 654 s.
The value for `CC(=O)N1CCc2cc(C(=O)N3CCCC3)ccc21` was 869 s; that for `COc1ccc(NC(=O)CCNc2cnc3cnccn23)cc1Cl` was 603 s; that for `CCCc1cc(C(=O)N2CCCC2c2ccc(OC)cc2)no1` (centres undefined) was 1120 s.
The result for `CCOCC(=O)N1CCCN(C2=NS(=O)(=O)C(c3ccc(F)cc3)=C2C)CC1` reads 711 s; that for `CC(C)OCCCN1C(=O)CN(C2CCCCC2)C(=O)C1c1cccs1` (centres undefined), 991 s.
The value for `CCCn1nc(CNC(=O)c2sc(C)nc2C)c2ccccc21` was 776 s.
Molecule `COc1c(C(=O)NC(C)c2ccccc2)sc2cccc(F)c12` (centres undefined) came in with an RP-LC retention time of 1140 s.
The result for `COC(=O)c1sccc1S(=O)(=O)NCC1CCN(Cc2cc(C)oc2C)CC1` reads 579 s; that for `O=C(NC1CC1)c1ccc(CN2CCN(Cc3ccc(F)cc3)C(=O)C2=O)cc1`, 673 s.
For the molecule `COc1ccc(OC)c(S(=O)(=O)N2CCC(n3cnnc3C)CC2)c1`, the RP-LC retention time turned out to be 652 s.
For the molecule `CCCn1cc(SCC(=O)Nc2cc(C)on2)c2ccccc21`, the RP-LC retention time was 883 s.
The value for `N#Cc1cccc(NC(=O)C2CCN(S(=O)(=O)c3ccc4[nH]c(=O)ccc4c3)CC2)c1` was 706 s.
The result for `O=C(NCc1ccccn1)C1CCN(c2cnn(Cc3ccccc3)c(=O)c2)CC1` reads 615 s; that for `O=C(NCc1csc(-c2ccccc2)n1)[C@H]1CCCN1C(=O)Nc1ccc(Br)cc1`, 874 s; that for `Cc1sc(NC(=O)c2ccccc2C(=O)O)nc1-c1ccccc1`, 855 s.
The result for `COc1ccc(C)cc1NC(=O)N1CCCC(Cn2c(C3CC3)nc3cccnc32)C1` (centres undefined) reads 722 s; that for `COC(=O)c1ncn2c1C(=O)N(Cc1ccccc1F)C(C)(C(=O)NC1CCCCCC1)C2` (centres undefined), 816 s.
As for `CCCCN1C(=O)C(C)(C(=O)NCc2ccc(F)cc2)Oc2cccnc21` (centres undefined), the RP-LC retention time stood at 984 s.
The value for `Cc1ccc(CN2CCC(CNC(=O)c3ccc4c(c3)NC(=O)C3CCCCN43)CC2)cc1` (centres undefined) was 638 s; that for `COc1cc(F)ccc1-c1ccnc2nc(CCc3ccccc3)nn12` was 951 s; that for `O=C(NC1CCCCC1)N1CCc2nc(-c3ccc(F)cc3)ncc2C1` was 882 s.
As for `CCOc1ccc(-c2cc3c(=O)n(Cc4nc(-c5ccc(CC)cc5)no4)ncn3n2)cc1`, the RP-LC retention time worked out at 1300 s.
The value for `O=C(CCc1c(-c2ccc(Br)cc2)nc2ccccn12)Nc1ccc(F)c(F)c1` was 727 s; that for `c1ccc(Cn2c(-c3ccc(OC[C@H](C4CCNCC4)n4c(-c5ccccc5)nc5ccccc54)cc3)nc3ccccc32)cc1` was 692 s; that for `COc1ccc(-c2csc(NC(=O)c3sc(C)nc3C)n2)cc1` was 886 s.
In turn, `Cc1cc(-c2nnc(-c3ccccc3)o2)c(C)n1CC(=O)Nc1ccc(Cl)cc1` displayed an RP-LC retention time of 1020 s.
The value for `O=C(CCCc1ccccc1)Nc1ccc2c(c1)CCC(=O)N2` was 724 s.
Regarding `Cc1ccc(NC(=O)Cn2cnc3nc(N4CCCC(C(=O)NC5CC5)C4)sc3c2=O)c(C)c1` (centres undefined), the RP-LC retention time is 708 s.
The value for `COc1ccc(NC(=O)Cn2cccc2-c2nnc(C3CCC3)o2)cc1` was 850 s; that for `CC1COC2(CCN(c3nc(=O)c4cc(C(F)(F)F)cc([N+](=O)[O-])c4s3)CC2)O1` (centres undefined) was 1000 s.
In turn, `CC(C)Cc1ccc(S(=O)(=O)N2CCc3c(c(-c4nnc(-c5ccc(F)cc5)o4)nn3C)C2)cc1` had an RP-LC retention time of 1180 s.
The result for `O=C1CC(c2noc(-c3ccc(Cl)cc3)n2)CN1c1ccc(F)cc1` (centres undefined) reads 1030 s; that for `O=C(Cn1c(=O)oc2ccccc21)N1[C@H]2CC[C@@H]1c1cnc(-c3ccc(F)cc3)nc1C2`, 912 s.
The result for `CCOc1ccc2c(n1)CCN(C(=O)NC1CCCC1)C2` reads 731 s.
As to `CC(C)NC(=O)c1csc(N2CCCCC2)n1`, the RP-LC retention time came out at 919 s.
Molecule `COc1ccc(S(=O)(=O)N2CCCC(C(=O)NCCO)C2)cc1C` (centres undefined) gave an RP-LC retention time of 669 s.
The result for `CC1CCN(C(=O)c2cc(S(=O)(=O)N3CCC(C(=O)NC4CC4)CC3)cn2C)CC1` reads 681 s; that for `CCC1Oc2ccc(S(=O)(=O)N3CCC(C(=O)NCc4ccc(C)cc4)CC3)cc2NC1=O` (centres undefined), 963 s.
The value for `Cc1nnc2c(=O)n(CC(=O)NCc3cccc(F)c3)c3cccnc3n12` was 656 s; that for `Cc1nc(N2CCOCC2)c2c(C(=O)Nc3ccccc3Cl)c(C)oc2n1` was 911 s.
The result for `CC(NC(=O)c1cc2n(n1)CCCC2)c1ccc(F)cc1` (centres undefined) reads 818 s.
Molecule `Cc1onc(-c2cccc(Br)c2)c1C(=O)NCCCOC(C)C` displayed an RP-LC retention time of 880 s.
The result for `O=C1COc2cc(S(=O)(=O)N3CCC(C(=O)NC4CCCC4)CC3)c(Cl)cc2N1` reads 735 s.
The value for `O=C(C1CCN(c2cncnc2N2CCCCC2)CC1)N1CCN(C2CCCCC2)CC1` was 557 s; that for `c1coc(-c2nc3ccccc3c3nnc(SCc4cn5ccccc5n4)n23)c1` was 867 s; that for `O=C(CN1c2ccc(F)cc2-c2ccccc2S1(=O)=O)Nc1ccc(F)cc1` was 948 s.
The value for `COc1ccc(CC(C)(O)CNC(=O)Nc2cccs2)cc1` (centres undefined) was 699 s.
As for `N#Cc1ccc(-c2nc(-c3nn(CCN4CCOCC4)c4ccccc34)no2)cc1`, the RP-LC retention time amounted to 692 s.
The result for `CCn1cccc1-c1nc(C)c(C(=O)N2CCN(c3cccc(C)c3)C(C)C2)s1` (centres undefined) reads 1190 s; that for `Cc1ccccc1Cn1cc(-c2ccncc2)cc1C(=O)NCc1cccnc1`, 581 s.
The molecule `Cc1ccc(N2CC(c3nc(-c4ccc5c(c4)OCO5)no3)CC2=O)cc1F` (centres undefined) registered an RP-LC retention time of 986 s.
